Data from ChEMBL document CHEMBL1201862, “PubChem BioAssay data set” (2004).
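Cells were grown in 96-well plates and exposed to each compound for 48 hours at five concentrations; endpoints were interpolated linearly between bracketing concentrations, or set to the highest concentration if not reached. GI50 marks 50% less growth.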 Activity calls are given as the source filed them. Cut-off read from the data, not from the text of the source: active = GI50 up to about 1.1 µM and inactive = higher.

Columns and labels:
Experiment in all cases: NCI tumour cell line growth inhibition, 48 h
A549 = system: A549
CCRF-CEM = system: CCRF-CEM
HCC 2998 = system: HCC 2998
HL-60 = system: HL-60
HOP-92 = system: HOP-92
IGROV-1 = system: IGROV-1
KM12 = system: KM12
LOX IMVI = system: LOX IMVI
MCF7 = system: MCF7
Malme-3M = system: Malme-3M
NCI-H23 = system: NCI-H23
NCI-H460 = system: NCI-H460
OVCAR-3 = system: OVCAR-3
OVCAR-5 = system: OVCAR-5
OVCAR-8 = system: OVCAR-8
PC-3 = system: PC-3
SF-539 = system: SF-539
SK-OV-3 = system: SK-OV-3
TK-10 = system: TK-10
U-251 = system: U-251

Measured: GI50

C=C1C(=O)O[C@@]23C1CC[C@@H](C)C2CC[C@@]1(C)OC31 (stereo not given in full)
inactive: A549 21.2 µM | CCRF-CEM 3.42 µM | HCC 2998 4.9 µM | HL-60 2.72 µM | HOP-92 8.79 µM | IGROV-1 11.7 µM | KM12 12.8 µM | LOX IMVI 11.5 µM | MCF7 5.96 µM | Malme-3M 2.08 µM | NCI-H23 7.18 µM | NCI-H460 16.4 µM | OVCAR-3 3.27 µM | OVCAR-5 12.6 µM | OVCAR-8 16.9 µM | PC-3 5.05 µM | SF-539 3.24 µM | SK-OV-3 16 µM | TK-10 4.12 µM | U-251 6.35 µM

CCOC(=O)C1C(=O)C=C(c2cc(C)ccc2O)CC1c1cccc(Cl)c1 (stereo not given)
inactive: A549 19 µM | CCRF-CEM 19.8 µM | HCC 2998 24.5 µM | HL-60 25.8 µM | HOP-92 13.5 µM | IGROV-1 13.6 µM | KM12 16.3 µM | LOX IMVI 24.2 µM | MCF7 19.5 µM | Malme-3M 17.3 µM | NCI-H23 26.4 µM | NCI-H460 26.1 µM | OVCAR-3 32 µM | OVCAR-5 43.7 µM | OVCAR-8 29.3 µM | PC-3 11.5 µM | SF-539 19.6 µM | SK-OV-3 20 µM | TK-10 20.3 µM | U-251 18.5 µM

CC(=O)/C=C/C1=C(C)CCCC1(C)CC(C)C (stereo not given)
inactive: A549 24.9 µM | CCRF-CEM 14.9 µM | HCC 2998 17.6 µM | HL-60 11.7 µM | HOP-92 6.73 µM | IGROV-1 29.3 µM | KM12 34.8 µM | LOX IMVI 18.6 µM | MCF7 25.2 µM | Malme-3M 30.6 µM | NCI-H23 24.8 µM | NCI-H460 29.1 µM | OVCAR-3 26.5 µM | OVCAR-5 61.5 µM | OVCAR-8 31.3 µM | PC-3 35 µM | SF-539 31.9 µM | SK-OV-3 55.5 µM | TK-10 > 100 µM | U-251 26.7 µM

COc1ccc2ccccc2c1/C=C/C(=O)c1ccccc1
inactive: A549 2.65 µM | CCRF-CEM 1.65 µM | HCC 2998 1.66 µM | HL-60 1.7 µM | HOP-92 1.69 µM | IGROV-1 4.03 µM | KM12 2.51 µM | LOX IMVI 2.77 µM | MCF7 3.25 µM | Malme-3M 9.33 µM | NCI-H23 2.6 µM | NCI-H460 1.79 µM | OVCAR-3 2.32 µM | OVCAR-5 7.57 µM | OVCAR-8 2.33 µM | PC-3 4 µM | SF-539 2.74 µM | SK-OV-3 3.62 µM | TK-10 2.59 µM | U-251 1.95 µM
